Measured values as given in US9873680B2 (Gilead Sciences, Inc., priority 2014, dated 2018).
Where two headings read alike, the source gives them in different places.

What was measured:
HIV-IIIb = experiment: Test A: Antiviral Assay in MT4 Cells; assay type: cell-based, HIV-1; conditions: read-out: % inhibition at 0.2 μM (percent inhibition of virus-induced cell killing)
Experimental: Test A: Antiviral Assay in MT4 Cells
MT-4 cells were next mixed with HIV-IIIb at an m.o.i of 0.003 for 1 hour, after which time 35 μL of virus/cell mixture (2000 cells) was immediately added to each well containing 40 μL of diluted compound. The plates were then incubated at 37° C. for 5 days. After 5 days of incubation, 25 μl of 2× concentrated CellTiter-Glo™ Reagent (catalog #G7571, Promega Biosciences, Inc., Madison, Wis.) was added to each well containing MT-4 cells. Cell lysis was carried out by incubating at room temperature for 10 min and then chemiluminescence was read.

[1] = Test B: Cytotoxicity Assay; assay type: cell-based; conditions: human, uninfected MT-4 cells, CellTiter-Glo
Experimental: Test B: Cytotoxicity Assay Compound cytotoxicity and the corresponding CC50 values was determined using the same protocol as described in the antiviral assay (Test A) except that uninfected cells were used.

[2] = Human immunodeficiency virus 1, MT4, 120 h, 0.2 μM drug concentration, MT-4 cells infected with HIV-IIIb, 5 days, values normalized to 100%, average over time

Row | Compound | inhibition at 0.2 µM (HIV-IIIb; [2]) [%] | CC50 at 5 days [1] [µM] | inhibition at 0.2 µM (HIV-IIIb; Human immunodeficiency virus 1, IIIB, MT4, 120 h) [%]
1 | Cn1nc(NS(C)(=O)=O)c2cccc(-c3ccc(C#CC4CCOCC4)nc3[C@H](Cc3cc(F)cc(F)c3)NC(=O)Cn3nc(C(F)(F)F)c4c3C(F)(F)[C@@H]3C[C@H]43)c21 [Compound 28B, 2-((3bS,4aR)-5,5-difluoro-3-(trifluoromethyl)-3b,4,4a,5-tetrahydro-1H-cyclopropa[3,4]cyclopenta[1,2-c]pyrazol-1-yl)-N—((S)-2-(3,5-difluorophenyl)-1-(3-(1-methyl-3-(methylsulfonamido)-1H-indazol-7-yl)-6-((tetrahydro-2H-pyran-4-yl)ethynyl)pyridin-2-yl)ethyl)acetamide] | 92 | 6.07 | –
2 | Cn1nc(N)c2cccc(-c3ccc(C#CC4(O)CCC4)nc3[C@H](Cc3cc(F)cc(F)c3)NC(=O)Cn3nc(C(F)(F)F)c4c3C(F)(F)[C@@H]3C[C@H]43)c21 [Compound 25, N—((S)-1-(3-(3-amino-1-methyl-1H-indazol-7-yl)-6-((1-hydroxy-cyclobutyl)ethynyl)pyridin-2-yl)-2-(3,5-difluorophenyl)ethyl)-2-((3bS,4aR)-5,5-difluoro-3-(trifluoromethyl)-3b,4,4a,5-tetrahydro-1H-cyclopropa[3,4]cyclopenta[1,2-c]pyrazol-1-yl)acetamide] | 91 | 9.92 | –
3 | Cn1nc(NS(C)(=O)=O)c2c(Cl)ccc(-c3ccc(C#CC4(O)CO[C@H]5OCC[C@H]54)nc3[C@H](Cc3cc(F)cc(F)c3)NC(=O)Cn3nc(C(F)(F)F)c4c3C(F)(F)[C@@H]3C[C@H]43)c21 (stereo partly drawn) [Compound 50B, N-((1S)-1-(3-(4-chloro-1-methyl-3-(methylsulfonamido)-1H-indazol-7-yl)-6-(((3aS,6aR)-3-hydroxyhexahydrofuro[2,3-b]furan-3-yl)ethynyl)pyridin-2-yl)-2-(3,5-difluorophenyl)ethyl)-2-((3bS,4aR)-5,5-difluoro-3-(trifluoromethyl)-3b,4,4a,5-tetrahydro-1H-cyclopropa[3,4]cyclopenta[1,2-c]pyrazol-1-yl)acetamide] | 92 | 10 | –
4 | Cn1nc(NS(C)(=O)=O)c2c(Cl)ccc(-c3ccc(C#CC4(O)CC(F)(F)C4)nc3[C@H](Cc3cc(F)cc(F)c3)NC(=O)Cn3nc(C(F)(F)F)c4c3C(F)(F)[C@@H]3C[C@H]43)c21 [Compound 103, N—((S)-1-(3-(4-chloro-1-methyl-3-(methylsulfonamido)-1H-indazol-7-yl)-6-((3,3-difluoro-1-hydroxycyclobutyl)ethynyl)pyridin-2-yl)-2-(3,5-difluorophenyl)ethyl)-2-((3bS,4aR)-5,5-difluoro-3-(trifluoromethyl)-3b,4,4a,5-tetrahydro-1H-cyclopropa[3,4]cyclopenta[1,2-c]pyrazol-1-yl)acetamide] | 100 | 9.21 | –
5 | Cn1nc(NS(C)(=O)=O)c2c(Cl)ccc(-c3cc(-c4cnn(C5COC5)c4)cnc3[C@H](Cc3cc(F)cc(F)c3)NC(=O)Cn3nc(C(F)F)c4c3C(F)(F)[C@@H]3C[C@H]43)c21 [Compound 93D, N—((S)-1-(3-(4-chloro-1-methyl-3-(methylsulfonamido)-1H-indazol-7-yl)-5-(1-(oxetan-3-yl)-1H-pyrazol-4-yl)pyridin-2-yl)-2-(3,5-difluorophenyl)ethyl)-2-((3bS,4aR)-3-(difluoromethyl)-5,5-difluoro-3b,4,4a,5-tetrahydro-1H-cyclopropa[3,4]cyclopenta[1,2-c]pyrazol-1-yl)acetamide] | 93 | 18.3 | –
6 | Cn1nc(NS(C)(=O)=O)c2c(Cl)ccc(-c3ccc(C#CC4(C)OCCn5ccnc54)nc3[C@H](Cc3cc(F)cc(F)c3)NC(=O)Cn3nc(C(F)(F)F)c4c3C(F)(F)[C@@H]3C[C@H]43)c21 (stereo partly drawn) [Compound 81E] | – | > 57 | 87
